Assay results reported in patent publication US6432405B1, “Method of inhibiting HIV infection with CD44 and anti-CD44 antibodies” (Duke University, priority 1991, dated 2002).
“Also recorded” adds a separate entry of the source.

Assays:
PBMC (T cells) = assay: T cell activation assay: CD2 mAb-stimulated PBMC proliferation; format: cell-based, human; conditions: compared to the results with CD44 liposomes; data not shown
Protocol: CD44 (A3D8) and control YgGl (P3X63/Ag8) antibodies were conjugated to CNBr-activated SEPHAROSE CL 4B (Pharmacia, Piscataway, N.J.) (3.0 mg IgG/ml gel). HuT 78 T Cell (CD44+) lysate was solubilized from 5×10^9 cells in 50 ml buffer (300 mM NaCl, 10 mM Na2HPO4 pH 7.4, 0.2% NaN3w/v 0.5% NP-40 v/v), 0.01% Tween 80 w/v, 0.2 mM phenylmethylsulfonyl fluoride, and 0.1 mM tosyl L-lysine chloromethyl ketone) (0° C.×30 min), centrifuged (4° C. 3000×g×15 min, 23420 ×g×30 min) filtered, precleared×2 over a P3-SEPHAROSE column, and allowed to bind overnight (4° C.) to A3D8-SEPHAROSE. The column was washed with 5 column volumes equilibration buffer, followed by 5 column volumes of 50 mM Tris, pH 7.4, 0.5% NP-40. NP-40 was exchanged for octyl glucoside (OG) (Sigma, St. Louis, Mo.) by washing with 2 column volumes 50 mM Tris pH 7.4, 1.5% OG w/v. […]
Liposomes were prepared by the method of Mimms et al ((1981) Biochemistry 20:833-840), using 1 μM purified CD44 or control glycophorin protein, 1 nM L-α-dioleoyl lecthin (Avanti Polar Lipids, Birmingham, Ala.), and 240 nM OG. Liposomes were analyzed for content of the appropriate protein using a novel labelling technique and flow cytometry. […] Fluoresceinated liposome-bead conjugates were then analyzed by flow cytometry. […]

HIV-1Ba.L = assay: HIV-1 infection of human monocytes in vitro (cytopathology/polykaryon formation, supernatant reverse transcriptase); format: cell-based; conditions: for effect on HIV-1-induced cytopathology and supernatant RT (in words): human monocytes inoculated with HIV-1Ba.L, three weeks of culture
Text: This aspect of the present invention provides a new method, based on a separate molecular pathway, of blocking HIV infection. The invention is based, at least in part, on Applicants' observation that CD44 (the hyaluronate receptor) facilitates HIV infection/expression in human cells. When this molecule is “blocked”by binding to the anti-CD44 antibody […] or AlG3, there is a 40-80% reduction of HIV infection/expression in normal human monocytes in vitro, as determined by inhibition of monocyte polykaryon formation and expression of viral reverse transcriptase in supernatant medium. […] To determine the importance of other monocyte cellular surface molecules in in vitro infection with HIV-1, the abilities of various murine monoclonal antibodies directed toward different monocyte membrane antigens to influence HIV-1 infection of human monocytes in vitro were determined. Monocytes from normal people were isolated by density gradients, adherence, and washing. Cells were inoculated with HIV-1Ba.L. […] three weeks of culture for reverse transcriptase (RT) activity, and the plates were examined morphologically. Antibodies AlG3 and […]

Q: How did the “effect on CD2 stimulated PBMC cultures (in words)” value (PBMC (T cells)) turn out when “soluble, free CD44 protein: CD44 protein affinity-purified from HuT 78 T cell lysate on A3D8-Sepharose, 80-85 kD” was run?
A: Its value is “Identical results”.

Q: For Chondroitin sulfate, which “effect on HIV-1-induced cytopathology and supernatant RT (in words)” value (HIV-1Ba.L) is on record?
A: Its value is “no effect; also recorded: no or minimal inhibitory activity”.

Q: hyaluronic acid [hyaluronate] was tested. Which “effect on HIV-1-induced cytopathology and supernatant RT (in words)” value (HIV-1Ba.L) did it give?
A: The value was “diminished morphological changes and RT expression”.

Q: And the “reduction/inhibition of HIV infection/expression” value (HIV-1Ba.L; normal human monocytes in vitro, by inhibition of monocyte polykaryon formation and viral reverse transcriptase in supernatant medium)?
A: Its value is “up to 85%”.
